US12186303B2, “Feed additive for cattle comprising n-acetyl-l-tryptophan as active ingredient” (CJ CHEILJEDANG CORPORATION, priority 2018, dated 2025)

Tests used:
Korean native steers [1] = assay: Body weight, average daily gain and feed conversion ratio according to NALT feeding under cold stress conditions; assay type: in vivo, Korean native cattle
Method: In the present disclosure, 8 Korean native steers (8.3±0.72 months old on average) were selected and used. […] Analysis of chemical composition (moisture, crude protein, crude fat, crude ash, etc.) and amino acids (19 types) of the basal diet stored at −20° C. was performed, and the results are shown in Table 3. After grouping the animals by statistical analysis of initial body weights, the animals were bred in 1.0×1.5 m^2 individual pens during the experiment period. The feed was offered based on an amount of dry matter of daily total mixed ration (TMR) per head. After 7 days of an adaptation period for N-acetyl-L-tryptophan (NALT), a mixture of 0.1% N-acetyl-L-tryptophan (NALT) and the total mixed ration was fed to individual animals every morning at 8 a.m. for 6 weeks, and water was available ad libitum. Total amounts of L-tryptophan ingested by the control and NALT-treated group by feeding NALT were 7.37 g/day/head and 16.26 g/day/head, respectively. The experiment was performed such that the NALT-treated group ingested 8.89 g/day/head more L-tryptophan than that of the control. Meanwhile, results of growth performance analysis (body weight and average feed intake) and genetic analysis of loin tissue were obtained by statistically comparing and analyzing significant differences between the control and the NALT-treated group, and results of hematological analysis were obtained via statistical comparison and analysis depending on NALT treatment, experiment period (days), and interaction (treatment×days). These numerical values were expressed as average values, and a significance test was performed at the 5% level using Student's t-test by using the JMP 5.0 software package (SAS Institute Inc., Cary, NC, USA). An average temperature during the adaptation period (days 0-6) was 4.3° C., and average temperatures during the experiment period were in the range of −6.2° C. to 4.2° C., relatively low compared to that of the adaptation period. In addition, an average temperature of the entire experiment period (days 7-48) was −1.0° C. Initial weight (day 0), intermediate weight (day 27), and end weight (day 48) of sentinel animals were measured, i.e., three times in total, before offering morning feed. The average daily gain (average daily weight gain, ADG) of the sentinel animals was calculated by dividing the differences in weight, between the initial weight and the intermediate weight and between the intermediate weight and the end weight, by the total number of days of the experiment.

Korean native steers [2] = assay: Body weight and average daily gain according to NALT feeding under heat stress conditions; assay type: in vivo, Korean native cattle
Method: In the present disclosure, 8 Korean native steers (15.9±0.16 months old on average) were selected and used. The experimental procedure and method were approved by the Institutional Animal Care and Use Committee at Konkuk University, Seoul, Republic of Korea (Approval No. KU17136). […] Analysis of chemical composition (moisture, crude protein, crude fat, crude ash, etc.) and amino acids (19 types) of the basal diet stored at −20° C. was performed, and the results are shown in Table 3. After grouping the animals by statistical analysis of initial body weights, the animals were bred in 1.0×1.5 m^2 individual pens during the experiment period. The feed was offered based on an amount of dry matter of daily total mixed ration (TMR) per head. After 7 days of an adaptation period for N-acetyl-L-tryptophan (NALT), a mixture of 0.1% N-acetyl-L-tryptophan (NALT) and the total mixed ration was fed to individual animals every morning at 8 a.m. for 6 weeks, and water was available ad libitum. Total amounts of L-tryptophan ingested by the control and the experimental group (NALT-treated group) by feeding NALT were 6.0 g/day/head and 18.2 g/day/head, respectively. The experiment was performed such that the NALT-treated group ingested 12.2 g/day/head more L-tryptophan than the control. Meanwhile, results of growth performance analysis (body weight and average feed intake) and genetic analysis of loin tissue were obtained by statistically comparing and analyzing significant differences between the control and the NALT-treated group, and results of hematological analysis were obtained via statistical comparison and analysis depending on NALT treatment, experiment period (days), and interaction (treatment×days). These numerical values were expressed as average values, and a significance test was performed at the 5% level using Student's t-test by using a JMP 5.0 software package (SAS Institute Inc., Cary, NC, USA). Temperature (° C.) and relative humidity (%) were recorded every day during a one-week adaptation period and a 6-week experiment period using a portable temperature and humidity meter. Average temperature and average relative humidity of each week were calculated using the temperature and relative humidity recorded during the total experiment period. In addition, a temperature-humidity index (THI) was calculated using temperature and humidity as shown in the following equation, and heat stress state may be diagnosed using the THI as an index feature of a heat load. THI=(1.8×T+32)−[0.55−0.0055×RH)×(1.8×T−26.8) Initial weight (week 0), intermediate weight (week 5), and end weight (week 10) of sentinel animals were measured, i.e., three times in total, before offering morning feed. The average daily gain (ADG) of the sentinel animals was calculated by dividing the differences in weight, between the initial weight and the intermediate weight and between the intermediate weight and the end weight, by the total number of days of the experiment.

With `CC(=O)N[C@@H](Cc1c[nH]c2ccccc12)C(=O)O` [NALT, N-acetyl-L-tryptophan] the “Decrease of feed conversion ratio compared to the control” value (Korean native steers [1]; 0.1% NALT in TMR) was 63%, the “Feed conversion ratio of the NALT-treated group relative to the control” value (Korean native steers [1]; 0.1% NALT in TMR) was 37% and the Body weight (Korean native steers [1]; 0.1% NALT in TMR, Day 0 (initial weight)) was 279.7 kg. The Body weight (Korean native steers [1]; 0.1% NALT in TMR, Day 27) was 301.5 kg, the Feed conversion ratio (Korean native steers [1]; 0.1% NALT in TMR, Day 27) was 13.3 and the “ADG (average daily gain)” value (Korean native steers [1]; 0.1% NALT in TMR, Day 27 (day 0 to day 27)) was 0.753 kg/day. The Body weight (Korean native steers [1]; 0.1% NALT in TMR, Day 48) was 315.7 kg, the Feed conversion ratio (Korean native steers [1]; 0.1% NALT in TMR, Day 48) was 4.82 and the “ADG (average daily gain)” value (Korean native steers [1]; 0.1% NALT in TMR, Day 48 (day 27 to day 48)) was 0.766 kg/day. For the same compound, the “Total weight change compared with the control” value (Korean native steers [1]; day 27 and day 48) was “no statistically significant difference”, the Body weight (Korean native steers [2]; heat stress, 0.1% NALT, Week 0 (initial weight)) was 428.8 kg and the Body weight (Korean native steers [2]; heat stress, 0.1% NALT, Week 5) was 480.8 kg. For the same compound, the Body weight (Korean native steers [2]; heat stress, 0.1% NALT, Week 10) was 510.5 kg, the ADG (Korean native steers [2]; heat stress, 0.1% NALT, week 0 to week 5) was 1.49 kg/day and the “Total ADG” value (Korean native steers [2]; heat stress, 0.1% NALT, week 0 to week 10) was 1.17 kg/day. For the same compound, the ADG (Korean native steers [2]; heat stress, 0.1% NALT, week 5 to week 10) was 0.85 kg/day and the “Average daily gain compared to the control” value (Korean native steers [2]; period where the THI was over 80 (high heat stress)) was “significantly increased”.
